Data set [1] deals with urine osmolarity in anesthetized rabbits. As to the kind of experiment: Urine osmolarity / urine output in anesthetized rabbits. It counts as in vivo. Here is the method:
An aqueous buffer solution of vasopressin (40 IU/ml) is prepared in citrate-phosphate buffer at pH 5.0. Vasopressin is an anti-diuretic pharmaceutical, which is used by patients which have an excessive urine output. Vasopressin caused a reduction of urine output and an increase in ion content, such as sodium ion content. Ion content in the urine is determined by using osmolarity measurement. An aliquot of 3.5 ml of this vasopressin solution is filled into the refillable dosage unit having a microporous membrane as the drug-releasing surface. The dosage unit is then assembled as a part of the pharmaceutical reservoir electrode of the iontotherapeutic device and membrane surface thereof is applied to the abdominal skin of 2 groups of anesthetized rabbits. Blood samples are withdrawn and urine samples are collected at regular time intervals and urine osmolarity is measured by osmometer. The increases in osmolarity from the basal level are the pharmacodynamic responses to the vasopressin transdermally absorbed.

The nature of data set [2]: In vitro skin permeation of vasopressin, Valia-Chien cell, H^3-vasopressin scintillation counting. It counts as in vitro ADME, hairless rat. Conditions: for Enhancement factor: vs passive diffusion (1.32 ng/cm^2 /hr). Here is the method:
(§1) An aqueous buffer solution of vasopressin (50 mcg/ml containing 1.7 mcCi/ml H^3 -vasopressin) is prepared in citrate-phosphate buffer at pH 5.0. An aliquot of 3.5 ml of this vasopressin solution is filled into the refillable dosage unit having a microporous membrane as the drug-releasingsurface. The dosage unit is then assembled as a part of the pharmaceutical reservoir electrode of the iontotherapeutic device and membrane surface thereof is applied to the stratum corneum side of hairless rat skin mounted in the Valia-Chien skin permeation cell at 37° C. Samples are withdrawn at regular intervals and radioactivity is measured by scintillation counter to determine the amount of vasopressin which has been transdermally absorbed.
as §1, with “aqueous buffered” for “aqueous buffer”, “pH 7.4 with varying ionic strengths.” for “pH 5.0.”, “the drug-releasing surface.” for “the drug-releasingsurface.”, “regular time” for “regular”
as §1, with “aqueous buffered” for “aqueous buffer”, “pH 5.0 at ionic strength of 0.064.” for “pH 5.0.”, “the drug-releasing surface.” for “the drug-releasingsurface.”, “regular time” for “regular”

Assay in data set [3]: as above
The format is in vitro ADME, hairless rat. The following applies: pH 7.4.

Where [4] appears, read: TPIS 0.3 mA, 16 KHz, on/off 1/1, 60 min, pH 5.0, ionic strength 0.064.

Values joined by “and” are separate entries in the source; they are usually repeats but may differ in a detail not shown here. Equal entries are not always repeated.

For `NC(=O)CC[C@@H]1NC(=O)[C@H](Cc2ccccc2)NC(=O)[C@H](Cc2ccc(O)cc2)NC(=O)[C@@H](N)CSSC[C@@H](C(=O)N2CCC[C@H]2C(=O)N[C@@H](CCCN=C(N)N)C(=O)NCC(N)=O)NC(=O)[C@H](CC(N)=O)NC1=O` [Vasopressin, vasopressin], the “urine osmolarity, TPIS vs TIDD” value in data set [1] (TPIS 0.22 mA/cm^2, 2 KHz, on/off 1/1, square, 40 min, 40 IU/ml pH 5.0) was “increases from the basal levels more rapidly and substantially”. Moreover, in data set [1] (TPIS, vasopressin solution pH 5.0), the “urine output, TPIS vs TIDD” value is “more effective in reducing urine output than TIDD”. In addition, the “Skin Permeation Rate” value in data set [2] (NO TPIS, 0.0 mA (passive diffusion), pH 5.0, X ± SD) is 0.94±0.62 ng/cm^2 hr and 0.94 (±0.62) ng/cm^2 hr; in data set [2] (setting [4]) it was 757.3 (±53.2) ng/cm^2 /hr; in data set [2] (TPIS 0.5 mA, 2 KHz, on/off 1/1, pH 7.4, ionic strength 0.122, ± SD) it was 244.6 (±26.3) ng/cm^2 /hr; in data set [2] (TPIS 0.5 mA, 2 KHz, on/off 1/1, pH 7.4, ionic strength 0.488, ± SD) it was 65.9 (±13.1) ng/cm^2 /hr; in data set [2] (With TPIS, activation phase, 0.5 mA, 2 KHz, on/off 1/1, 10 min per 40 min, pH 5.0, X ± SD) it was 116.2 (±10.7) ng/cm^2 hr; in data set [2] (With TPIS, activation phase, 1.0 mA, 2 KHz, on/off 1/1, 10 min per 40 min, pH 5.0, X ± SD), 178.0 (±25) ng/cm^2 hr. In addition, the Skin Permeation Rate in data set [2] (passive diffusion, pH 5.0, ionic strength 0.064, 30 hours) was 0.98±0.26 ng/cm^2 /hr; in data set [2] (post-activation phase (0.0 mA) after 0.5 mA TPIS, pH 5.0, X ± SD), 0.7 (±0.4) ng/cm^2 hr; in data set [2] (post-activation phase (0.0 mA) after 1.0 mA TPIS, pH 5.0, X ± SD), 5.3 (±0.5) ng/cm^2 hr; in data set [3] (TPIS 0.5 mA, 2 KHz, on/off 1/1, ionic strength 0.061, ± SD) it was 632.6 (±65.0) ng/cm^2 /hr; in data set [3] (TPIS 0.5 mA, 2 KHz, on/off 1/1, ionic strength 0.244, ± SD), 101.4 (±9.1) ng/cm^2 /hr; in data set [3] (passive diffusion, 30 hours), 1.32±0.38 ng/cm^2 /hr. The “Skin Permeation Lag Time” value is 9.12 (±1.06) hours in data set [2] (NO TPIS, 0.0 mA, pH 5.0, X ± SD); less than 0.5 h in data set [2] (With TPIS, activation phase, 0.5 mA, 2 KHz, on/off 1/1, 10 min per 40 min, pH 5.0); less than 0.5 h in data set [2] (With TPIS, activation phase, 1.0 mA, 2 KHz, on/off 1/1, 10 min per 40 min, pH 5.0). For the same compound, the “time after TPIS treatment for skin permeability to return to the rate before treatment” value in data set [2] (TPIS 0.3 mA, 16 KHz, 60 min, pH 5.0, ionic strength 0.064) is “less than 2 hours”. Also, the “duration of time lag” value in data set [2] (setting [4]) is 0.40 (±0.06) hours; in data set [2] (passive diffusion, pH 5.0, ionic strength 0.064) it was 9 h. The Enhancement factor in data set [2] (TPIS 0.5 mA, ionic strength 0.061) was 472.8 (±59.0); in data set [2] (TPIS 0.5 mA, ionic strength 0.122), 185.3 (±19.9); in data set [2] (TPIS 0.5 mA, ionic strength 0.244), 76.8 (±6.9); in data set [2] (TPIS 0.5 mA, ionic strength 0.488), 49.9 (±18.0).

The values are drawn from US5961482A, “Iontotherapeutic device and process and iontotherapeutic unit dose” (Rutgers, The State University Of New Jersey, priority 1996, dated 1999).
